Reference: publication PMC7893776, “Selecting an anti-malarial clinical candidate from two potent dihydroisoquinolones” (Malaria Journal, 2021)
Like-named read-outs stand apart in the source and are kept apart here.

Tests used:
rat plasma proteins = assay: Plasma protein binding (RED), rat; format: in vitro ADME; settings: average of 20, 4, 0.8 µM
Procedure: A Rapid Equilibrium Dialysis (RED) Plate (Thermo Scientific, catalog #, PI-90007) was used to determine the percentage of compound binding to plasma proteins. The positive control for this experiment was propranolol-HCl (10 mM in DMSO) and the internal standard was warfarin (2 µM in methanol). 10 mM stocks of compound in DMSO were diluted with DMSO acetonitrile (1:4, v:v) to three different intermediate concentrations: high (2 mM), medium (0.4 mM) and low (0.08 mM). A 10 mM stock of propranolol in DMSO was diluted to 0.4 mM concentration in DMSO:acetonitrile (1:4 v:v). In 16 Eppendorf tubes, the control (10 µL) or each of three compound dilutions (10 µL) were each added to separate aliquots of mouse, rat, dog, and human plasma (990 µL). In the RED plate, potassium phosphate buffer (500 µL, 0.1 M, pH 7.4, 37 °C) was placed in every white well and each plasma/compound mixture was added to each of 3 red wells. […] The compounds and internal standard were detected by selected ion recording (SIR). Using the peak area ratio of compound to warfarin from the SIR spectra, the percentage of free compound [1] and bound compound [2] were calculated using the following equations: (1) % free = (concentration buffer chamber/concentration plasma chamber)*100, and (2) % bound = 100 − % free.

[1] = Rat single oral dose toxicology / toxicokinetic study; format: in vivo, male Sprague Dawley rats
Procedure: The high dose levels of both compounds (50, 100, 200 mg/kg, PO, (+)-SJ733/311) were also independently tested by SRI, with a single oral gavage administration. Blood (through jugular vein) and urine were collected at time points up to 72 and 24 h post dose, respectively. Supernatant plasma was removed following centrifugation and stored frozen (− 70 °C) until LC–MS analysis. For toxicology studies, male Sprague Dawley rats were administered 50, 100, 250, 500, or 750 mg/kg of (r)-SJ733 or (r)-SJ311 by oral gavage (one dose per animal). Body weights were recorded on Day 1 prior to dose administration and on Day 4. Blood samples (400 µL) were collected at 4 and 24 h post drug administration from the retro-orbital sinus. Potassium EDTA treated plasma was collected and kept frozen at -70 °C for bioanalytical analysis. Rat samples from the toxicokinetic study at SRI were analyzed at SJCRH using the method described above. The calibration range was from 47 to 26,000 ng/mL for plasma.

[2] = Dog pharmacokinetics, single PO or IV dose; format: in vivo, male beagle dogs; settings: for bioavailability: read-out: Dog F (oral bioavailability)
Source text: Studies were undertaken to determine the plasma pharmacokinetics of SJ733 and SJ311. These studies included: (i) single oral gavage (PO) or intravenous (IV) dose administration to female C57BL/6 mice; (ii) single PO or IV dose administration to male Sprague Dawley (SD) rats; (iii) single PO or IV dose administration to male beagle dogs; (iv) toxicokinetic (TK) study following single PO administration to male SD rats. The PO and IV formulation used for mouse studies at SJCRH was 1% hydroxypropyl-beta-cyclodextrin (w/v), 10% ethanol (v/v), 10% propylene glycol (v/v), 40% PEG-400 (v/v) and 39% PBS (pH 7.4) isotonic (v/v). Compounds were dosed orally as suspensions, and intravenously as filtered solutions. Compound concentrations were confirmed post filtration using UV spectroscopy. The IV formulation used for rat studies (Monash University) was the same as that used for mice. For PO dosing to rats (Monash University) at 2 mg/kg, a suspension formulation was used containing 0.5% (w/v) hydroxypropyl methylcellulose, 0.5% (v/v) benzyl alcohol and 0.4% (v/v) Tween 80. The formulation used for rat studies at SRI (PO, high dose) was the same as that used in mouse PK studies. The formulation for the high dose TK study at SRI was 0.5% methylcellulose in sterile water. The formulation used for dog studies was the same as that used in mouse PK studies. The plasma PK of SJ733 and SJ311 following a single PO gavage or IV dose (via saphenous vein) to male beagle dogs was determined at an IV dose of 3 mg/kg and PO doses of 3 and 30 mg/kg (n = 3 for each). Briefly, this PK study was carried out in three sessions with one week washout period in between to allow for complete clearance of compounds. In the first session, 6 male dogs were administered a single 3 mg/kg IV dose of SJ311 or SJ733. In the subsequent second and third sessions, the same 6 male dogs were given a single 3 mg/kg or 30 mg/kg PO dose of SJ311 or SJ733, respectively. Plasma (0 -72 h) and urine (0–48 h) samples were collected for further analysis of SJ311 or SJ733 concentrations. Dog plasma was extracted utilizing protein precipitation with a twofold volume ratio of acetonitrile, while urine samples were extracted utilizing liquid–liquid extraction with ethyl acetate. SJ733, SJ311, and verapamil (IS) were quantitated by LC–MS/MS as described above. Plasma concentration time (Ct) data for SJ733 and SJ311 were grouped by nominal time point, and the mean Ct values were subjected to noncompartmental analysis (NCA) using Phoenix WinNonlin 8.1 (Certara USA, Inc., Princeton, NJ). For all experiments, the area under the Ct and first moment curves (AUC, AUMC) were estimated using the “linear up log down” method. The terminal phase was defined as at least three time points at the end of the Ct profile, and the elimination rate constant (Kel) was estimated using an unweighted log-linear regression of the terminal phase. The terminal elimination half-life (T1/2) was estimated as 0.693/Kel, and the AUC from time 0 to infinity ([…]) was estimated as the AUC to the last time point (AUClast) + Clast (predicted)/Kel with the […] similarly calculated. Additional parameters estimated included observed maximum concentration (Cmax), time of Cmax (Tmax), concentration at the last observed time point (Clast), time of Clast (Tlast), and the apparent oral terminal volume of distribution (V/F). The apparent oral clearance (CL/F), systemic clearance (CL) and volume of distribution at steady state (Vss) were all estimated using standard formulae [19].

[3] = male, beagle, plasma, po, dosed orally, read-out: Tmax
[4] = male, beagle, plasma, po, summary over the oral doses studied

Tmax [2, 3] | bioavailability [2, 4] | AUCinf ([2]; single IV 3 mg/kg) | CL ([2]; single IV 3 mg/kg) | Dose in urine ([2]; single IV 3 mg/kg) | Half life ([2]; single IV 3 mg/kg) | Vss ([2]; single IV 3 mg/kg) | AUCinf ([2]; single PO 3 mg/kg) | CL ([2]; single PO 3 mg/kg) | Cmax ([2]; single PO 3 mg/kg) | Dose in urine ([2]; single PO 3 mg/kg) | F% ([2]; single PO 3 mg/kg) | Half life ([2]; single PO 3 mg/kg) | Tmax ([2]; single PO 3 mg/kg) | V ([2]; single PO 3 mg/kg) | AUCinf ([2]; single PO 30 mg/kg) | CL ([2]; single PO 30 mg/kg) | Cmax ([2]; single PO 30 mg/kg) | Dose in urine ([2]; single PO 30 mg/kg) | SMILES | % bound (rat plasma proteins) | also measured
 |  |  |  |  |  |  |  |  |  |  |  |  |  |  |  |  |  |  | N#Cc1cc(NC(=O)C2c3ccccc3C(=O)N(CC(F)(F)F)C2c2cn[nH]c2)ccc1F (racemic) [(r)-SJ311] | 91.0 ± 0.1% | clinical observation ([1]; rats, 100 and 500 mg/kg groups, single oral gavage): Ruffled fur
 |  |  |  |  |  |  |  |  |  |  |  |  |  |  |  |  |  |  | N#Cc1cc(NC(=O)C2c3ccccc3C(=O)N(CC(F)(F)F)C2c2cccnc2)ccc1F (racemic) [(r)-SJ733] | 90.0 ± 1.7% | 
1 h | 60 to 100% |  |  |  |  |  |  |  |  |  |  |  |  |  |  |  |  |  | N#Cc1cc(NC(=O)[C@H]2c3ccccc3C(=O)N(CC(F)(F)F)[C@@H]2c2cccnc2)ccc1F (racemic) [SJ733] |  | Dog F (oral bioavailability) ([2]; summary over the oral doses studied): 74-115%; AUCinf at the highest event free dose ([1]; rat): over 217 µM h; adverse events ([1]; rat, at any dose): No adverse events; provable therapeutic window ([1]; rat, in vivo): above 40
 |  | 77.0 ± 12.4 µM·h | 1.42 ± 0.217 mL/min/kg | 32.3 ± 21.3% | 7.8 ± 2.2 h | 0.96 ± 0.27 L/kg | 56.2 ± 12.1 µM·h | 2.02 ± 0.5 mL/min/kg | 4 ± 0.8 µM | 34.7 ± 15.9% | 73.0 ± 15.8% | 6.1 ± 0.6 h | 3.3 ± 1.2 h | 1.1 ± 0.4 L/kg | 601 ± 137 µM·h | 1.88 ± 0.417 mL/min/kg | 35 ± 5.1 µM | 33.4% | N#Cc1cc(NC(=O)[C@H]2c3ccccc3C(=O)N(CC(F)(F)F)[C@@H]2c2cn[nH]c2)ccc1F [(+)-SJ311] |  | F% ([2]; single PO 30 mg/kg): 77.9 ± 17.7%; Half life ([2]; single PO 30 mg/kg): 6.7 ± 1.4 h; Tmax ([2]; single PO 30 mg/kg): 3.0 ± 1.7 h; V ([2]; single PO 30 mg/kg): 1.1 ± 0.4 L/kg
 |  | 33.1 ± 10.0 µM·h | 3.4 ± 0.9 mL/min/kg | 1.9 ± 0.3% | 9.6 ± 4.7 h | 2.8 ± 1.8 L/kg | 40.6 ± 12.9 µM·h | 2.82 ± 0.917 mL/min/kg | 3 ± 0.7 µM | 2.8 ± 0.2% | 115 ± 29% | 11.4 ± 5.0 h | 0.83 h | 2.6 ± 0.8 L/kg | 243 ± 52.9 µM·h | 4.57 ± 1.12 mL/min/kg | 25.6 ± 2.1 µM | 3.1 ± 1.9% | N#Cc1cc(NC(=O)[C@H]2c3ccccc3C(=O)N(CC(F)(F)F)[C@@H]2c2cccnc2)ccc1F [(+)-SJ733] |  | F% ([2]; single PO 30 mg/kg): 73.7 ± 16.1%; Half life ([2]; single PO 30 mg/kg): 5.3 ± 0.7 h; Tmax ([2]; single PO 30 mg/kg): 1.67 h; V ([2]; single PO 30 mg/kg): 2.1 ± 0.8 L/kg
3 h | 74 to 78% |  |  |  |  |  |  |  |  |  |  |  |  |  |  |  |  |  | N#Cc1cc(NC(=O)[C@H]2c3ccccc3C(=O)N(CC(F)(F)F)[C@@H]2c2cn[nH]c2)ccc1F [SJ311] |  | % dose recovered in dog urine ([2]; regardless of route, mean): 32-34%
